In PubChem BioAssay (NCI) one finds TGI and GI50 data, which are given here for 15 compounds.

Test systems include A549 NSCLC; EKVX NSCLC; HL-60(TB) leukemia; IGROV1 ovarian; SF-539 CNS; SK-MEL-2 melanoma; SK-OV-3 ovarian; TK-10 renal; MDA-MB-231 breast.
Common to all, as to experiment: inhibition of tumour cell growth, NCI panel, 48 h

The structures appear in SMILES notation.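 Values below derive from 48-hour exposures of cells grown in 96-well plates, with endpoints linearly interpolated between the two concentrations bracketing the appropriate inhibition level. GI50 = concentration required for 50% inhibition of growth. TGI: total growth inhibition.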

For `Cc1cc(Cl)ccc1NC(=O)CC1SC(=NC(=O)c2ccccc2Cl)NC1=O` (centres undefined), the TGI in the test on A549 NSCLC was more than 100 µM; with EKVX NSCLC, more than 100 µM; with HL-60(TB) leukemia it was 4.72 µM; in the test on IGROV1 ovarian it was more than 100 µM; in the test on SF-539 CNS it was 35.4 µM; in the test on SK-MEL-2 melanoma it was 71.1 µM.
Turning to `O=C(CN(Cc1ccccc1)Cc1ccccc1)N1CCc2c([nH]c3ccccc23)C1c1cccnc1` (centres undefined), the TGI in the test on A549 NSCLC is more than 100 µM; in the test on EKVX NSCLC it was more than 100 µM; with HL-60(TB) leukemia it was 4.17 µM; with IGROV1 ovarian it was more than 100 µM; with SF-539 CNS it was 26.6 µM; in the test with SK-OV-3 ovarian it was more than 100 µM. This compound also yielded a TGI in the test on TK-10 renal of more than 100 µM.
For the compound `O=C(O)CCC(=O)Oc1ccc(O)c2c1CCCC2=O`, the TGI in the test with A549 NSCLC, with EKVX NSCLC, with HL-60(TB) leukemia, in the test on IGROV1 ovarian, in the test with SF-539 CNS and in the test with SK-MEL-2 melanoma was more than 100 µM throughout. For the same compound, the TGI in the test with SK-OV-3 ovarian and in the test with TK-10 renal was more than 100 µM in each case.
Consider `N#CC(C#N)=Cc1ccc(C(O)P(=O)(O)O)cc1` (centres undefined), for which the TGI with A549 NSCLC, in the test on EKVX NSCLC, with HL-60(TB) leukemia, in the test on IGROV1 ovarian, with SF-539 CNS and with SK-MEL-2 melanoma was more than 100 µM in each case. Besides, the TGI with SK-OV-3 ovarian and in the test with TK-10 renal was more than 100 µM in each case.
For the compound `COc1ccc(C2CC(c3ccccc3)=NN2C(=O)c2cc(OC)c(OC)c(OC)c2)cc1O` (centres undefined), the GI50 in the test with A549 NSCLC is 0.545 µM; in the test on EKVX NSCLC, 3.04 µM; in the test with HL-60(TB) leukemia, 0.244 µM; in the test with IGROV1 ovarian it was 0.498 µM; with MDA-MB-231 breast it was 0.902 µM; with SF-539 CNS, 0.288 µM. Besides, the GI50 with SK-MEL-2 melanoma is 4.74 µM; in the test on SK-OV-3 ovarian, 0.414 µM; with TK-10 renal it was 14.7 µM. In addition, the TGI is more than 100 µM with A549 NSCLC; more than 100 µM in the test on EKVX NSCLC; 1.05 µM in the test on HL-60(TB) leukemia; more than 100 µM with IGROV1 ovarian; 18.1 µM in the test on MDA-MB-231 breast; 1.31 µM in the test with SF-539 CNS. For the same compound, the TGI in the test on SK-MEL-2 melanoma was more than 42 µM; in the test with SK-OV-3 ovarian, 16.6 µM; in the test with TK-10 renal, more than 100 µM.
Regarding `COC(=O)C(=O)C(C#N)c1cccc(Cl)c1` (centres undefined), the TGI with A549 NSCLC, with EKVX NSCLC, in the test on HL-60(TB) leukemia, in the test with IGROV1 ovarian, in the test on SF-539 CNS and with SK-MEL-2 melanoma was more than 100 µM throughout. For the same compound, the TGI in the test with SK-OV-3 ovarian and in the test on TK-10 renal was more than 100 µM each time.
In the case of `CC12CCCC(C#N)(C1)OC2=O` (centres undefined), the TGI in the test with A549 NSCLC, in the test with EKVX NSCLC, with HL-60(TB) leukemia, in the test on IGROV1 ovarian, with SF-539 CNS and in the test with SK-MEL-2 melanoma was more than 100 µM throughout. Moreover, the TGI in the test with SK-OV-3 ovarian and with TK-10 renal was more than 100 µM each time.
`O=C1c2cccc([N+](=O)[O-])c2C(=O)c2nccnc21`: the TGI with A549 NSCLC turned out to be 3.37 µM; with EKVX NSCLC it was 3.92 µM; in the test with HL-60(TB) leukemia, 4.81 µM; with SF-539 CNS, 2.93 µM; in the test on SK-MEL-2 melanoma it was 2.9 µM; with TK-10 renal, 3.85 µM.
For the compound `O=C[C@]12CC=C3OC4OC5(CCCCC5)OC4[C@H]3[C@H]1C(=O)C=CC2=O` (some centres undefined), the TGI was more than 100 µM in the test with A549 NSCLC; 39.8 µM in the test on EKVX NSCLC; 2.78 µM with HL-60(TB) leukemia; 13.4 µM in the test on SF-539 CNS; more than 100 µM in the test on SK-MEL-2 melanoma; more than 100 µM in the test with SK-OV-3 ovarian. Besides, the TGI in the test on TK-10 renal came out at 81.3 µM.
On to `CCOC(=O)NC(=O)c1cn(CCCCCCCCCCC(=O)NCCCN2CCN(CCCNC(=O)CCCCCCCCCCn3cc(C(=O)NC(=O)OCC)c(=O)[nH]c3=O)CC2)c(=O)[nH]c1=O`, for which the TGI in the test on A549 NSCLC, in the test on HL-60(TB) leukemia, in the test on SF-539 CNS, with SK-MEL-2 melanoma, in the test with SK-OV-3 ovarian and in the test with TK-10 renal was more than 100 µM throughout.
As to `CCC1=C[C@@H]2CN(C1)Cc1c([nH]c3ccccc13)[C@@](C(=O)OC)(c1cc3c(cc1OC)N(C)[C@H]1[C@@](O)(C(=O)OC)[C@H](OC(C)=O)[C@]4(CC)C=CCN5CC[C@]31[C@@H]54)C2`, the GI50 in the test on A549 NSCLC is less than 0.019 µM; in the test with EKVX NSCLC, less than 0.01 µM; in the test with HL-60(TB) leukemia, less than 0.01 µM; in the test on IGROV1 ovarian it was less than 0.0136 µM; with MDA-MB-231 breast, less than 0.018 µM; with SF-539 CNS, less than 0.01 µM. Also, the GI50 is 0.727 µM in the test on SK-MEL-2 melanoma, less than 0.01 µM in the test with SK-OV-3 ovarian and 0.641 µM in the test on TK-10 renal. In addition, the TGI in the test on A549 NSCLC was more than 34.1 µM; with EKVX NSCLC, 18.8 µM; with HL-60(TB) leukemia, less than 0.01 µM; with IGROV1 ovarian it was 0.463 µM; in the test on MDA-MB-231 breast, 8.04 µM; in the test with SF-539 CNS, 0.0441 µM. Besides, the TGI was determined as 9.23 µM in the test with SK-MEL-2 melanoma, 2.02 µM in the test with SK-OV-3 ovarian and 16.7 µM with TK-10 renal.
Regarding `O=CC1CCC=CC1NC(=O)OCc1ccccc1` (centres undefined), the TGI with A549 NSCLC is more than 100 µM; in the test on EKVX NSCLC, more than 100 µM; with HL-60(TB) leukemia, 46.5 µM; in the test on IGROV1 ovarian, more than 100 µM; in the test with SF-539 CNS, 51.9 µM; with SK-MEL-2 melanoma it was more than 100 µM. Moreover, the TGI in the test on SK-OV-3 ovarian and in the test with TK-10 renal was more than 100 µM each time.
`Cn1nc(-c2ccccc2)c2c(/C=C/c3ccc(Cl)cc3)onc2c1=O`: the TGI with A549 NSCLC was 35.4 µM; with EKVX NSCLC, more than 100 µM; with IGROV1 ovarian, more than 100 µM; in the test on SF-539 CNS, 72.8 µM; in the test on TK-10 renal it was more than 100 µM.
Regarding `CN1C(c2ccccc2)CC(C)(O)CC1c1ccccc1` (centres undefined), the TGI in the test with A549 NSCLC, in the test on EKVX NSCLC, with HL-60(TB) leukemia, in the test on IGROV1 ovarian, in the test on SF-539 CNS and in the test with SK-MEL-2 melanoma was more than 100 µM each time. Further, the TGI in the test with SK-OV-3 ovarian and with TK-10 renal was more than 100 µM throughout.
Consider `O=C1C(Cl)=C(Cl)C(=O)N1c1ccccc1Cl`, for which the TGI is more than 100 µM in the test on A549 NSCLC; more than 100 µM in the test with EKVX NSCLC; 21.7 µM in the test with HL-60(TB) leukemia; more than 100 µM in the test with IGROV1 ovarian; more than 100 µM with SF-539 CNS; more than 100 µM in the test on SK-MEL-2 melanoma. The TGI with SK-OV-3 ovarian and in the test with TK-10 renal was more than 100 µM throughout.
